Data on 1 compound can be found in PMC8999917, “Structure–Activity Relationship of Synthetic Ginkgolic Acid Analogs for Treating Type 2 Diabetes by PTPN9 Inhibition” (International Journal of Molecular Sciences, 2022).

Structures are written as SMILES.

Assay [1] deals with Akt phosphorylation in PA-induced insulin-resistant C2C12 cells. Kind of assay: Palmitic acid-induced insulin resistance in C2C12 myotubes (p-Akt). The assay is classed as cell-based, mouse. As to conditions: PA (250 µM, 16 h)-treated C2C12, 5 μM compound for 30 min with 100 nM insulin. The protocol:
Since insulin plays an important role in regulating glucose metabolism through the redistribution of GLUT4 from intracellular vesicles to the cell surface, it is important to describe the interaction between 1e and insulin in the Akt pathway. […] Next, we evaluated the protective effects of 1e against PA-induced insulin resistance in C2C12 myotubes. To generate an insulin resistance model, C2C12 myotubes were treated with 250 µM PA in a serum-free medium for 16 h. Akt phosphorylation levels in PA-treated C2C12 cells decreased by 50% compared to levels in normal C2C12 cells (Figure 6C). Furthermore, in the presence of insulin and GA, Akt phosphorylation levels decreased only by 30% compared to levels in normal cells. […] In addition, the GA analogs induced no cytotoxic effects in C2C12 muscle cells (data not shown). […] The expression levels of glucose uptake-related proteins were determined via Western blotting, as previously described. In brief, differentiated 3T3-L1 cells were plated in six-well plates at a 1.5 × 10^4 cells/well density in a final volume of 2 mL. […] Secondary antibodies were added to the membranes at a concentration of 1:2000 for 1 h at room temperature, and immunoreactive bands were detected via ECL (GE Healthcare Korea Co., Ltd., Incheon, Korea). […]

For another assay, the system named is Akt phosphorylation. Kind of assay: Western blot of Akt phosphorylation in mature 3T3-L1 adipocytes. The assay is classed as cell-based, mouse. As to conditions: compound only group and insulin co-treatment group. The protocol: To further elucidate the pathway involved in 1e-mediated glucose uptake promotion, AMPK and Akt phosphorylation in mature 3T3-L1 adipocytes was evaluated via Western blotting following treatment with 5 or 10 µM 1e for 1 h.
The expression levels of glucose uptake-related proteins were determined via Western blotting, as previously described. In brief, differentiated 3T3-L1 cells were plated in six-well plates at a 1.5 × 10^4 cells/well density in a final volume of 2 mL. Then, the cells were incubated in the presence of DMSO or different concentrations of the compounds and harvested using a RIPA buffer (Sigma-Aldrich, Saint Louis, MS, USA) and a protease inhibitor cocktail (Roche Korea, Seoul, Korea) after 1 h of incubation. Equivalent amounts of proteins (20 µg) from each lysate were separated by 10% SDS-PAGE and transferred onto PVDF membranes (Merk KgaA, Darmstadt, Germany), where they were maintained for 120 min at 200 mA. The membranes were blocked with 5% skim milk for 1 h at room temperature in 0.1% TBST and then probed with primary antibodies at different concentrations in 0.1% BSA overnight at 4 °C according to the manufacturer’s instructions. Secondary antibodies were added to the membranes at a concentration of 1:2000 for 1 h at room temperature, and immunoreactive bands were detected via ECL (GE Healthcare Korea Co., Ltd., Incheon, Korea). […]

Consider `CCCCCCCCCCCCCOc1cccc(O)c1C(=O)O` [Compound 1e], for which the “Akt phosphorylation in PA-induced insulin-resistant C2C12 cells” value in assay [1] is recorded as “restoring it to levels similar to those in the non-insulin-resistant group”. Further, the Akt phosphorylation levels result in the assay on Akt phosphorylation is “no significant change”.
